Laboratory results from patent US20100137277A1, “PYRIDINE COMPOUNDS AND THEIR USE AS P2Y12 ANTAGONISTS” (ASTRAZENECA AB, priority 2007, published 2010).

Biological target: T1, P2Y12 receptor (Homo sapiens, UniProt Q9H244)
T1 construct: expressed in transfected cells; host or cells: CHO cells (membranes)
Experiment: Functional inhibition of 2-Me-S-ADP induced P2Y12 signalling (35S-GTPγS binding, membranes from P2Y12 transfected CHO-cells)
Type: biochemical
Conditions: EC80 of agonist, value given at the end of each example
Method: Functional inhibition of—the P2Y12 receptor can be measured by in vitro assays using cell membranes from P2Y12 transfected CHO-cells, the methodology is indicated below.
Functional inhibition of 2-Me-S-ADP induced P2Y12 signalling: 5 μg of membranes were diluted in 200 μl of 200 mM NaCl, 1 mM MgCl2, 50 mM HEPES (pH 7.4), 0.01% BSA, 30 μg/ml saponin and 10 μM GDP. To this was added an EC80 concentration of agonist (2-methyl-thio-adenosine diphosphate), the required concentration of test compound and 0.1 μCi ^35S-GTPγS. The reaction was allowed to proceed at 30° C. for 45 min. Samples were then transferred on to GF/B filters using a cell harvester and washed with wash buffer (50 mM Tris (pH 7.4), 5 mM MgCl2, 50mM NaCl). Filters were then covered with scintilant and counted for the amount of ^35S-GTPγS retained by the filter. Maximum activity was that determined in the presence of the agonist and minimum activity in the absence of the agonist following subtraction of the value determined for non-specific activity. The effect of compounds at various concentrations was plotted according to the equation
y=A+((B−A)/(1+((C/x)̂D)))
and IC50 estimated where • A is the bottom plateau of the curve i.e. the final minimum y value • B is the top of the plateau of the curve i.e. the final maximum y value • C is the x value at the middle of the curve. This represents the log EC50 value when A+B=100 • D is the slope factor. • x is the original known x values. • Y is the original known y values.
Functional inhibition of 2-Me-S-ADP induced P2Y12 signalling: 5 μg of membranes were diluted in 200 μl of 200 mM NaCl, 1 mM MgCl2, 50 mM HEPES (pH 7.4), 0.01% BSA, 30 μg/ml saponin and 10 μM GDP. To this was added an EC80 concentration of agonist (2-methyl-thio-adenosine diphosphate), the required concentration of test compound and 0.1 μCi ^35S-GTPγS. The reaction was allowed to proceed at 30° C. for 45 min. Samples were then transferred on to GF/B filters using a cell harvester and washed with wash buffer (50 mM Tris (pH 7.4), 5 mM MgCl2, 50 mM NaCl). […]

T1 sequence (Q9H244 whole entry): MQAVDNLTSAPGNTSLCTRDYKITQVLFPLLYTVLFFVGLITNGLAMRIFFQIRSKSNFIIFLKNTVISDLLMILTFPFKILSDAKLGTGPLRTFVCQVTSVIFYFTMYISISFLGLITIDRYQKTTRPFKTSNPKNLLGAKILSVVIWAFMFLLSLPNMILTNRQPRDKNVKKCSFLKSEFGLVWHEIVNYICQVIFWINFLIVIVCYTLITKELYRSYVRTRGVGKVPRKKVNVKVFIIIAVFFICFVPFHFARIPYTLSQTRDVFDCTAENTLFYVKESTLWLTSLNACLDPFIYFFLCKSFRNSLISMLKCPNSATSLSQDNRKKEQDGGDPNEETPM

Row | IC50 [µM] | Compound
1 | 0.015 | CCOC(=O)c1cc(C#N)c(N2CC(C(=O)NS(=O)(=O)Cc3ccccc3F)C2)nc1OC [Example 21]
2 | 0.089 | CCOC(=O)c1cc(C#N)c(N2CC(C(=O)NS(=O)(=O)Cc3ccccc3)C2)nc1COCc1ccccc1 [Example 35, Ethyl 2-[(benzyloxy)methyl]-6-{3-[(benzylsulfonyl)carbamoyl]azetidin-1-yl}-5-cyanonicotinate]
3 | 0.134 | CCOC(=O)c1cc(C#N)c(N2CCC(C(=O)NS(=O)(=O)c3ccccc3)CC2)nc1OC [Example 7, Ethyl 5-cyano-2-methoxy-6-{4-[(phenylsulfonyl)carbamoyl]piperidin-1-yl}nicotinate]
